Data as given in the supplement of paper PMC10307832.

Experiments:
Experiment in all cases: relative viability (nuclei count vs DMSO), 5 days (fraction); higher = more cells survive
Nelarabine + Tozasertib = compound: COc1nc(N)nc2c1ncn2[C@@H]1O[C@H](CO)[C@@H](O)[C@@H]1O [Nelarabine] + Cc1cc(Nc2cc(N3CCN(C)CC3)nc(Sc3ccc(NC(=O)C4CC4)cc3)n2)n[nH]1 [Tozasertib] (partner 0.1 µM)
Outline: (§1)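 Lung cancer cell lines, seeded in 1536-well plates, were treated the following day by pin tool with a single drug or with five library-drug doses (not always all listed) in √10 steps on top of a fixed anchor-drug dose. Cells were fixed and nuclei stained in one step after 5 days, and nuclei were counted. Relative viability is the nuclei count for treated wells divided by that for vehicle wells, reported as medians of duplicate plates.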

Nelarabine + Vorinostat = compound: COc1nc(N)nc2c1ncn2[C@@H]1O[C@H](CO)[C@@H](O)[C@@H]1O [Nelarabine] + O=C(CCCCCCC(=O)Nc1ccccc1)NO [Vorinostat] (partner 1 µM)
Outline: as §1

Adavosertib + Decitabine = compound: C=CCn1c(=O)c2cnc(Nc3ccc(N4CCN(C)CC4)cc3)nc2n1-c1cccc(C(C)(C)O)n1 [Adavosertib] + Nc1ncn([C@H]2C[C@H](O)[C@@H](CO)O2)c(=O)n1 [Decitabine] (partner 2 µM)
Outline: as §1

Adavosertib + Crizotinib = compound: C=CCn1c(=O)c2cnc(Nc3ccc(N4CCN(C)CC4)cc3)nc2n1-c1cccc(C(C)(C)O)n1 [Adavosertib] + C[C@@H](Oc1cc(-c2cnn(C3CCNCC3)c2)cnc1N)c1c(Cl)ccc(F)c1Cl [Crizotinib] (partner 1 µM)
Outline: as §1

Row | Cell Line | relative viability (Nelarabine + Tozasertib; first compound 0.01 µM) | relative viability (Nelarabine + Tozasertib; first compound 0.03162 µM) | relative viability (Nelarabine + Tozasertib; first compound 0.1 µM) | relative viability (Nelarabine + Tozasertib; first compound 0.3162 µM) | relative viability (Nelarabine + Tozasertib; first compound 1 µM) | relative viability (Nelarabine + Vorinostat; first compound 0.01 µM) | relative viability (Nelarabine + Vorinostat; first compound 0.03162 µM) | relative viability (Nelarabine + Vorinostat; first compound 0.1 µM) | relative viability (Nelarabine + Vorinostat; first compound 0.3162 µM) | relative viability (Nelarabine + Vorinostat; first compound 1 µM) | relative viability (Adavosertib + Decitabine; first compound 0.01 µM) | relative viability (Adavosertib + Decitabine; first compound 0.03162 µM) | relative viability (Adavosertib + Decitabine; first compound 0.1 µM) | relative viability (Adavosertib + Decitabine; first compound 0.3162 µM) | relative viability (Adavosertib + Crizotinib; first compound 0.01 µM) | relative viability (Adavosertib + Crizotinib; first compound 0.03162 µM) | relative viability (Adavosertib + Crizotinib; first compound 0.1 µM) | relative viability (Adavosertib + Crizotinib; first compound 0.3162 µM)
1 | HCC-366 | 0.0929 | 0.0947 | 0.0956 | 0.17 | 0.112 | 0.582 | 0.343 | 0.391 | 0.47 | 0.339 | 0.369 | 0.35 | 0.377 | 0.277 | 0.498 | 0.568 | 0.701 | 0.644
2 | HCC-78 | 0.492 | 0.415 | – | 0.384 | 0.401 | 0.601 | 0.475 | – | 0.427 | 0.556 | 0.661 | 0.679 | 0.731 | 0.618 | 0.34 | 0.351 | 0.339 | 0.347
3 | NCI-H358 | 0.0868 | 0.0783 | 0.096 | 0.105 | 0.0898 | 0.852 | 1.02 | 0.663 | 0.791 | 0.617 | 0.246 | 0.201 | 0.188 | 0.193 | 0.542 | 0.559 | 0.507 | 0.309
4 | NCI-H23 | 0.594 | 0.327 | 0.377 | 0.369 | 0.509 | 0.737 | 0.604 | 0.548 | 0.615 | 0.584 | 0.299 | 0.31 | 0.255 | 0.246 | 0.532 | 0.558 | 0.517 | 0.432
5 | PC-14 | 0.625 | 0.645 | 0.597 | 0.599 | 0.631 | 0.832 | 0.736 | 0.662 | 0.578 | 0.691 | 0.249 | 0.226 | 0.259 | 0.101 | 0.91 | 1.02 | 1.02 | 0.646
